Experimental findings from US12497465B2, “Combination of antibody-drug conjugate and tubulin inhibitor” (priority 2018, dated 2025) are described below.

Structures can show the parent of a compound that is named as a salt. Where two headings read alike, the source gives them in different places.

In test [1] the test system is Human breast cancer cell line KPL-4. As to the kind of experiment: Antitumor study (1): subcutaneously transplanted KPL-4 cells in nude mice. The test is classed as in vivo. The settings on record: KPL-4 xenograft, BALB/c nude mice, last day of the study; ADC (1) […] iv Day 0; paclitaxel 15 mg/kg iv Day 0, 7; eribulin mesylate 0.8 mg/kg iv Day 0, 4. The source says:
The calculation formula is as shown below.
Human breast cancer cell line KPL-4, which was obtained from Dr. Junichi Kurebayashi in Kawasaki Medical School [British Journal of Cancer, (1999) 79 (5/6).

Test [2] deals with Human breast cancer cell line JIMT-1. As to the kind of experiment: Antitumor study (2): subcutaneously transplanted JIMT-1 cells in nude mice. The class given is in vivo. The settings on record: JIMT-1 xenograft, ADC (1) 10 mg/kg iv Day 0, paclitaxel 15 mg/kg iv Day 0, 7, 14, eribulin mesylate 0.8 mg/kg iv Day 0, 3.
Procedure: (§1) Measurement and calculation formula: In all studies, the major axis and minor axis of tumors were measured twice a week with an electronic digital caliper (CD15-CX, Mitutoyo Corp.), and the tumor volume (mm^3) was calculated. The calculation formula is as shown below. Tumor volume(mm^3)=½×Major axis(mm)×[Minor axis (mm)]^2
(§2) Paclitaxel was dissolved with cremophor and ethanol (1:1), diluted with physiological saline, and then intravenously administered to the tail vein in a fluid volume of 10 or 20 mL/kg. Eribulin mesylate was diluted with physiological saline, and intravenously administered to the tail vein in a fluid volume of 10 mL/kg.
Human breast cancer cell line JIMT-1, which was purchased from DSMZ (Deutsche Sammlung von Mikroorganismen und Zellkulturen GmbH), was suspended into physiological saline, subcutaneously transplanted at 5×10^6 cells into the right side of female nude mice, and the mice were randomly grouped 13 days after the transplantation (Day 0). […] Paclitaxel was intravenously administered to the tail vein at a dose of 15 mg/kg on Day 0, Day 7 and Day 14. Eribulin mesylate was intravenously administered to the tail vein at a dose of 0.8 mg/kg on Day 0 and Day 3. Single administration groups of each drug, a combined administration group, and a solvent administration group as a control group were set up.
The test system of test [3] is Human gastric cancer cell line NCI-N87. As to the kind of experiment: Antitumor study (3): subcutaneously transplanted NCI-N87 cells in nude mice. The test is classed as in vivo. The settings on record: NCI-N87 xenograft, ADC (1) 1 mg/kg iv Day 0, paclitaxel 15 mg/kg iv Day 0, 7, eribulin mesylate 0.4 mg/kg iv Day 0, 4.
Procedure: as §1, §2
Human gastric cancer cell line NCI-N87, which was purchased from ATCC (American Type Culture Collection), was suspended into physiological saline, subcutaneously transplanted at 1×10^7 cells into the right side of female nude mice, and the mice were randomly grouped 6 days after the transplantation (Day 0). […] Paclitaxel was intravenously administered to the tail vein at a dose of 15 mg/kg on Day 0 and Day 7. Eribulin mesylate was intravenously administered to the tail vein at a dose of 0.4 mg/kg on Day 0 and Day 4. Single administration groups of each drug, a combined administration group, and a solvent administration group as a control group were set up.
The test system of test [4] is Human breast cancer cell line JIMT-1. The settings on record: JIMT-1 xenograft, nude mice; ADC (2) 10 mg/kg iv Day 0, 7, 14; paclitaxel 15 mg/kg iv Day 0, 7.
Procedure: as §1
(§3) Paclitaxel was dissolved with cremophor and ethanol (1:1), diluted with physiological saline, and then intravenously administered to the tail vein in a fluid volume of 10 or 20 mL/kg.
Human breast cancer cell line JIMT-1, which was purchased from DSMZ, was suspended into physiological saline, subcutaneously transplanted at 5×10^6 cells into the right side of female nude mice, and the mice were randomly grouped 10 days after the transplantation (Day 0). […] Paclitaxel was intravenously administered to the tail vein at a dose of 15 mg/kg on Day 0 and Day 7. Single administration groups of each drug, a combined administration group, and a solvent administration group as a control group were set up.
Test [5] concerns Human gastric cancer cell line SNU-1. In words: Antitumor study (5): subcutaneously transplanted SNU-1 cells in nude mice. The settings on record: SNU-1 xenograft, ADC (1) 10 mg/kg iv Day 0, paclitaxel 15 mg/kg iv Day 0, 7.
Procedure: as §1, §3
Human gastric cancer cell line SNU-1, which was purchased from ATCC, was suspended into Matrigel, subcutaneously transplanted at 1×10^7 cells into the right side of female nude mice, and the mice were randomly grouped 28 days after the transplantation (Day 0). […] Paclitaxel was intravenously administered to the tail vein at a dose of 15 mg/kg on Day 0 and Day 7. Single administration groups of each drug, a combined administration group, and a solvent administration group as a control group were set up.
Test [6] concerns Human ovarian cancer cell line OV-90. As to the kind of experiment: Antitumor study (8): subcutaneously transplanted OV-90 cells in nude mice. As to conditions: OV-90 xenograft, Day 17, ADC (3) 10 mg/kg iv Day 0, paclitaxel 15 mg/kg iv Day 0, 7, 14.
Procedure: as §1, §3
Human ovarian cancer cell line OV-90, which was purchased from ATCC, was suspended into Matrigel, subcutaneously transplanted at 2.5×10^6 cells into the right side of female nude mice, and the mice were randomly grouped 15 days after the transplantation (Day 0). […] Paclitaxel was intravenously administered to the tail vein at a dose of 15 mg/kg on Day 0, Day 7, and Day 14. Single administration groups of each drug, a combined administration group, and a solvent administration group as a control group were set up.
Test [7] concerns Human lung cancer cell line NCI-H441. As to the kind of experiment: Antitumor study (6): subcutaneously transplanted NCI-H441 cells in nude mice. The settings on record: NCI-H441 xenograft, ADC (1) 10 mg/kg iv Day 0, paclitaxel 15 mg/kg iv Day 0, 7.
Procedure: as §1, §3
Human lung cancer cell line NCI-H441, which was purchased from ATCC, was suspended into Matrigel, subcutaneously transplanted at 5×10^6 cells into the right side of female nude mice, and the mice were randomly grouped 7 days after the transplantation (Day 0). […] Paclitaxel was intravenously administered to the tail vein at a dose of 15 mg/kg on Day 0 and Day 7. Single administration groups of each drug, a combined administration group, and a solvent administration group as a control group were set up.
Test [8] concerns Human breast cancer cell line MDA-MB-453. In words: Antitumor study (4): subcutaneously transplanted MDA-MB-453 cells in nude mice. As to conditions: MDA-MB-453 xenograft, ADC (1) 0.5 mg/kg iv Day 0, paclitaxel 15 mg/kg iv Day 0, 7.
Procedure: as §3
Human breast cancer cell line MDA-MB-453, which was purchased from ATCC, was suspended into Matrigel basal membrane matrix (Matrigel), subcutaneously transplanted at 1×10^7 cells into the right side of female nude mice, and the mice were randomly grouped 7 days after the transplantation (Day 0). […] Paclitaxel was intravenously administered to the tail vein at a dose of 15 mg/kg on Day 0 and Day 7. Single administration groups of each drug, a combined administration group, and a solvent administration group as a control group were set up.

Take `C=C1C[C@@H]2CC[C@@]34C[C@H]5O[C@H]6[C@@H](O3)[C@H]3O[C@H](CC[C@@H]3O[C@H]6[C@H]5O4)CC(=O)C[C@@H]3[C@@H](OC)[C@@H](C[C@H](O)CN)O[C@H]3C[C@H]3O[C@@H](CC[C@@H]1O2)C[C@@H](C)C3=C` [eribulin mesylate]: the “tumor growth inhibition (TGI)” value in test [1] amounted to 91%. Moreover, the TGI (in general, the reduction of tumour growth relative to the control group) was found to be 73% in test [2] and 64% in test [3].

With `CC(=O)O[C@H]1C(=O)[C@@]2(C)[C@H]([C@H](OC(=O)c3ccccc3)[C@]3(O)C[C@H](OC(=O)[C@H](O)[C@@H](NC(=O)c4ccccc4)c4ccccc4)C(C)=C1C3(C)C)[C@]1(OC(C)=O)CO[C@@H]1C[C@@H]2O` [paclitaxel], the “tumor growth inhibition (TGI)” value in test [1] was 48%. For the same molecule, the TGI in test [2] worked out at 30%; in test [3] it was 50%; in test [4] it was 36%; in test [5], 58%; in test [6], 80%; in test [7], 55%. In test [8], this molecule yielded a TGI of 96%.

In test [4], “antibody-drug conjugate (2): anti-HER3 antibody (SEQ ID NO: 3 and 4) conjugated to exatecan-derivative drug-linker via a thioether bond” yielded a tumour growth inhibition (TGI) of 69%.

B1: antibody-drug conjugate (3): anti-CDH6 antibody (SEQ ID NO: 11 residues 20-471, SEQ ID NO: 12 residues 21-233) conjugated to exatecan-derivative drug-linker via a thioether bond (conjugate, chains of the INN, looked up)
VH: EVQLVQSGAEVKKPGASVKVSCKASGYTFTRNFMHWVRQAPGQGLEWMGWIYPGDGETEYAQKFQGRVTITADTSTSTAYMELSSLRSEDTAVYYCARGVYGGFAGGYFDFWGQGTLVTVSS
VL: DIQMTQSPSSLSASVGDRVTITCKASQNIYKNLAWYQQKPGKAPKLLIYDANTLQTGVPSRFSGSGSGSDFTLTISSLQPEDFATYFCQQYYSGWAFGQGTKVEIK
modifications: exatecan-derivative drug-linker (deruxtecan)
Take B1: the TGI in test [6] is reported as 97%.
